{"source": "patent US8173428B2", "about": "“LNA oligonucleotides and the treatment of cancer” (Santaris Pharma A/S, priority 2004, dated 2012)", "key": {"15PC3 cells": {"system": "15PC3 cells", "experiment": "Caspase 3/7 activity (apoptosis) in transfected 15PC3 cells", "assay_type": "cell-based, human", "experimental": "Culturing of cells: 15PC3 was cultured in DMEM (Sigma) containing 10% fetal bovine serum, Glutamax I and gentamicin at 37° C., 95% humidity and 5% CO2. The cervical carcinoma cell line HeLa were cultured in MEM (Sigma) containing 10% fetal bovine serum, Glutamax I and gentamicin at 37° C., 95% humidity and 5% CO2. When reaching 60-70% confluency, the cells were transfected using Lipofectamine 2000 (5 μg/ml).\n15PC3 cells were seeded to a density of 10000 cells per well in white 96-well plates (Nunc 136101) in DMEM the day prior to transfection. The next day cells were washed once in prewarmed OptiMEM followed by addition of 72 μl OptiMEM containing 5 μg/ml Lipofectamine-2000 (In vitrogen). Cells were incubated for 7 min before adding 18 μl oligonucleotides diluted in OptiMEM. The final oligonucleotide concentration ranged from 0.2 nM to 100 nM. After 4 hours of treatment, cells were washed in OptiMEM and 100 μl DMEM containing serum was added. Following oligonucleotide treatment, cells were allowed to recover for the period indicated before they were removed from the CO2 incubator and equilibrated to room temperature for 15 min. 100 μl of the highly sensitive Caspase 3/7-Glo™ Reagent (Promega) was added directly to the cells, and the plates were incubated for 20 min. Luminescence (luciferase activity) was recorded in a Luminoskan Ascent instrument (Thermo Labsystems). The luciferase activity is measured as Relative Light Units per seconds (RLU/s). The data was analysed using the Ascent software 2.4.2. Graphs of fold induction relative to mock were generated using MS Excel.\nStaurosporine, Camptothecine or Taxol induced cells served as positive controls (see FIGS. 3, 6A and Table 4 plus Example 21)."}, "complementary RNA": {"system": "complementary RNA", "experiment": "Measurement of melting temperature (Tm) of the duplex", "assay_type": "binding", "details": "3 μM, 10 mM sodium phosphate/100 mM NaCl/0.1 nM EDTA, pH 7.0", "experimental": "Measurement of melting temperature (Tm) of the compounds: A 3 μM solution of SEQ ID NO. 2 in 10 mM sodium phosphate/100 mM NaCl/[…], pH 7.0 was mixed with its complement DNA/RNA 3 μM in 10 mM sodium phosphate/100 mM NaCl/[…], pH 7.0 at 90° C. for a minute and allowed to cool to room temperature. The Tm of the duplex was then determined by increasing the temperature 1° C./min. from 25 to 95° C. The Tm of SEQ ID NO."}, "cynomolgus monkeys": {"system": "cynomolgus monkeys", "experiment": "i.v. MTD study in cynomolgus monkeys", "assay_type": "in vivo", "details": "dose escalation up to 160 mg/kg×3 (total 930 mg/kg) or 120 mg/kg×5 over 2 weeks", "experimental": "The animals were treated with either a dose escalating design with a maximum dose of 160 mg/kg×3 (total dose of 930 mg/kg) or a 120 mg/kg×5 over 2 weeks."}, "[1]": {"experiment": "Oligonucleotide content in cynomolgus monkey tissues (4 weeks repeat dose study)", "assay_type": "in vivo, cynomolgus monkeys", "details": "i.v. twice weekly for four weeks, then 4 weeks untreated", "experimental": "In an i.v. 4 weeks repeat dose toxicity study in cynomolgus monkeys SEQ ID NO. 2 was administered at doses of 0, 6, 15 and 60 mg/kg/occasion twice weekly for four weeks. In the groups of animals receiving 0, 15 or 60 mg/kg/occasion some animals were followed for a recovery period of 4 weeks without treatment.\nTissues including liver and kidney samples were snap frozen and stored at −70° C. for subsequent analysis.\nTissues (˜100 mg) is weighed off (tissue is kept on dry-ice before and after weighing). 500 μl extraction buffer containing proteinase K (1 mg/ml) is added. The tissue is homogenized mechanically and the homogenate is incubated over night at 37° C.\nReference samples are prepared by dissolving SEQ ID NO. 2 in extraction buffer at the relevant concentration range. Exactly 100 mg liver tissue from un-treated animals is weighed off (kept on dry-ice before and after weighing). Extraction buffer (with proteinase K, 1 mg/ml) containing the reference material is added to the tissue samples to a total volume of 0.5 ml. The tissue is mechanically homogenized and is incubated over night at 37° C. The detection signal of SEQ ID NO. 2 from these samples is used to prepare a standard curve covering the lowest and the highest concentrations found in the treated animals.\nTissue samples are transferred to 2 ml microtubes with screw caps. […]"}}, "note": "Oligonucleotides are written 5' to 3', each unit as a sugar letter and its base; * is a phosphorothioate linkage, no mark a phosphodiester; rarer units and linkages stand in square brackets, end groups in braces. Plain capitals give the bases only. l = locked nucleic acid (LNA); [5mC] = 5-methylcytosine; d = 2'-deoxy (DNA)", "data": [{"substance": "5′-^MeCsTs^MeCsAsastscscsastsgsgs^MeCsAsGsc-3′ (l[5mC]*lT*l[5mC]*lA*dA*dT*dC*dC*dA*dT*dG*dG*l[5mC]*lA*lG*dC) [SEQ ID NO. 2]", "values": [{"measurement": "Apoptosis At 5 nM, 24 hours", "setting": "15PC3 cells; 5 nM, 24 hours (Table 7, FIG. 3)", "value": "3.5-fold"}, {"measurement": "Max Apoptosis", "setting": "15PC3 cells; 25 nM, 24 hours (Table 7)", "value": "6.5-fold"}, {"measurement": "Maximum Induction Fold-induction of apoptosis, Caspase 3/7 assay", "setting": "15PC3 cells; 25 nM, 48 hours, 15PC3 cells", "value": "6.9 x (25 nM, 48 hours)"}, {"measurement": "Fold induction of apoptosis, Caspase 3/7 assay", "setting": "15PC3 cells; 24 hours, 5 nM, 15PC3 cells, relative to mock", "value": 3.5, "unit": "x"}, {"measurement": "Tm (° C.) complementary RNA", "setting": "complementary RNA", "value": 75.3, "unit": "°C"}, {"measurement": "clinical signs", "setting": "cynomolgus monkeys", "value": "no notable clinical signs"}, {"measurement": "liver and kidney toxicity", "setting": "cynomolgus monkeys", "value": "evidence of liver and kidney toxicity was apparent in all animals"}, {"measurement": "Content in liver of recovery animals", "setting": "[1]", "value": "detectable"}]}]}
